Earlier results as cited in patent publication US7632828B2, “Gram-positive carbapenem antibacterials and processes for their preparation” (FOB Synthesis, Inc., priority 2004, dated 2009).

Legend:
[1] = test subjects
[2] = molecular target: T1, mammalian β-lactamase renal dehydropeptidase-I (DHP-I) (Homo sapiens, UniProt P16444)
T1 sequence (P16444 17-385): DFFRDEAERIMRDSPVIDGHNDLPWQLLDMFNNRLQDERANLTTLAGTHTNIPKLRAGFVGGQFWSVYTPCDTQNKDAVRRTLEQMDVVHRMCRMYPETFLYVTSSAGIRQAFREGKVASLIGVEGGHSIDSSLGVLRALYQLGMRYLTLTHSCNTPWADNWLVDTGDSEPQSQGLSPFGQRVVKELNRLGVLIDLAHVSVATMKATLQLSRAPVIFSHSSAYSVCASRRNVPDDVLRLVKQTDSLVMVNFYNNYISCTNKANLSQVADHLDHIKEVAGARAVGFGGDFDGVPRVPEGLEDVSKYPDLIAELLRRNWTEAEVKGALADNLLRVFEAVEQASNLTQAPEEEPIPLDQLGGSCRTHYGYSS

[3] = due to its lactam nucleus and amino acid configuration
kidney dehydropeptidase = molecular target: T2, kidney dehydropeptidase (Homo sapiens, UniProt P16444)
T2 sequence (P16444 17-385): T1 sequence (P16444 17-385)

C[C@@H](O)[C@H]1C(=O)N2C(C(=O)O)=C(SCCN=CN)C[C@H]12 [imipenem, N-formimidoyl thienamycin]
urinary tract recovery [1]: poor urinary tract recovery
stability to renal dehydropeptidase-I (DHP-I) [2]: instability

C[C@@H](O)[C@H]1C(=O)N2C(C(=O)O)=C(SCCN)C[C@H]12 [thienamycin]
chemical stability [3]: chemically unstable
activity against Pseudomonas spp. (Pseudomonas spp.): active against Pseudomonas spp.

Biapenem
potency across bacterial spectrum (wide bacterial spectrum): exhibits potency across a wide bacterial spectrum
stability against hydrolysis by kidney dehydropeptidase (kidney dehydropeptidase): stability against hydrolysis by kidney dehydropeptidase

meropenem
activity against Gram-negative bacteria (Gram-negative bacteria): active against a large number of Gram-negative bacteria
